Here are results for 23 compounds from patent US20240199612A1, “IMIDAZOPYRIDINYL INHIBITORS OF PLASMA KALLIKREIN” (SHIRE HUMAN GENETIC THERAPIES, INC., priority 2021, published 2024).

Each structure is given as a SMILES string.

Chain of human activated kallikrein enzyme (P03952 391-638 limits assumed): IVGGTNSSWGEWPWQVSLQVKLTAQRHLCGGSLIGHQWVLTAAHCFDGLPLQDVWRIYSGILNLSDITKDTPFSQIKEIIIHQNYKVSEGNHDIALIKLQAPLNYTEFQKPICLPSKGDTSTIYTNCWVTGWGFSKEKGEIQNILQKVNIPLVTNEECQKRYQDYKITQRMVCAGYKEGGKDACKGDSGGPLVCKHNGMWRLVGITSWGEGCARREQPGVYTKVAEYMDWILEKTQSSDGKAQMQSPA
Chain of human activated kallikrein enzyme (P03952 20-390 partner limits assumed): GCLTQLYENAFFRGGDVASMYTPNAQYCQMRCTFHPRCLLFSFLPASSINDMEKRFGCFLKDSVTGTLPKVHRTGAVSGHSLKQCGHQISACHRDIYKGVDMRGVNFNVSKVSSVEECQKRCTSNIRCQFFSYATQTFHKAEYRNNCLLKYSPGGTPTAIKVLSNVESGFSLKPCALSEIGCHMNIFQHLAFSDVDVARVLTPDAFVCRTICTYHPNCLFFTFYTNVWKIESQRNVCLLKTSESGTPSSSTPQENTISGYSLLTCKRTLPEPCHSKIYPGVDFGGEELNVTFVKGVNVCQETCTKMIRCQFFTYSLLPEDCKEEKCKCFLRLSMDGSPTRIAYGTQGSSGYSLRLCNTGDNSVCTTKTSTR

This experiment addresses human activated kallikrein enzyme (Homo sapiens, UniProt P03952). As to the kind of experiment: Inhibition of human activated plasma kallikrein, fluorogenic peptide substrate (PFR-AMC) assay, 500 pM enzyme format. The class given is biochemical. As to conditions: format with 500 pM activated kallikrein, 300 uM PFR-AMC, 30 min preincubation, 10 min reaction, room temperature; read-out: Primary Dose Response Assay: Average EC50. On the procedure:
Inhibitory Activity of Exemplary Compounds against Plasma Kallikrein.
Compounds were evaluated for inhibition of the human activated kallikrein enzyme in two formats of an assay employing a fluorogenic peptide substrate. In one assay format, the concentrations of reagents were as follows: 20 mM Tris pH 7.5, 1 mM EDTA, 150 mM sodium chloride, 0.1% PEG-400, 0.1% Triton X-100, 500 pM activated kallikrein enzyme, 300 uM Pro-Phe-Arg-7-amido-4-methylcoumarin (PFR-AMC) substrate. Prior to reaction initiation with substrate, enzyme and inhibitors were preincubated for 30 min at room temperature. After initiation with substrate, reactions were incubated for 10 min at room temperature and fluorescence emission at 460 nm from 380 nm excitation measured with a microplate reader. In another assay format, the concentrations of reagents were as follows: 20 mM Tris pH 7.5, 1 mM EDTA, 150 mM sodium chloride, 0.1% PEG-400, 0.1% Triton X-100, 5 pM activated kallikrein enzyme, 300 uM PFR-AMC substrate. Prior to reaction initiation with substrate, enzyme and inhibitors were preincubated for 30 min at room temperature. After initiation with substrate, reactions were incubated for 18 hr at room temperature and fluorescence emission at 460 nm from 380 nm excitation measured with a microplate reader.
The EC50 is the concentration giving half of the maximal effect. Consider `O=C(Nc1cc(NCc2cn3cc(C4CC4)ccc3n2)ncn1)OCc1cccc(Cl)c1` [Compound I-1, 3-Chlorobenzyl (6-(((6-cyclopropylimidazo[1,2-a]pyridin-2-yl)methyl)amino)pyrimidin-4-yl)carbamate], for which the EC50 is 0.005 to 0.05 µM. In the case of `C[C@@H](OC(=O)Nc1cc(NCc2cn3cc(C4CC4)ccc3n2)ncn1)c1cccc(Cl)c1` [Compound I-2, (R)-1-(3-chlorophenyl)ethyl (6-(((6-cyclopropylimidazo[1,2-a]pyridin-2-yl)methyl)amino)pyrimidin-4-yl)carbamate], the EC50 is under 0.005 µM. The same measure for `C[C@H](OC(=O)Nc1cc(NCc2cn3cc(C4CC4)ccc3n2)ncn1)c1cccc(Cl)c1` [Compound I-3, (S)-1-(3-chlorophenyl)ethyl (6-(((6-cyclopropylimidazo[1,2-a]pyridin-2-yl)methyl)amino)pyrimidin-4-yl)carbamate]: 0.5 to 9 µM; for `COc1cccc(COC(=O)Nc2cc(NCc3cn4cc(C5CC5)ccc4n3)ncn2)c1` [Compound I-4, 3-methoxybenzyl (6-(((6-cyclopropylimidazo[1,2-a]pyridin-2-yl)methyl)amino)pyrimidin-4-yl)carbamate]: 0.05 to 0.5 µM; for `CCC(OC(=O)Nc1cc(NCc2cn3cc(C4CC4)ccc3n2)ncn1)c1cccc(Cl)c1` (centres unmarked) [Compound I-6, 1-(3-chlorophenyl)propyl (6-(((6-cyclopropylimidazo[1,2-a]pyridin-2-yl)methyl)amino)pyrimidin-4-yl)carbamate]: 0.05 to 0.5 µM.

Consider `CC(OC(=O)Nc1cc(NCc2cn3cc(C4CC4)ccc3n2)ncn1)c1cccc(Cl)c1F` (centres unmarked) [Compound I-7, 1-(3-chloro-2-fluorophenyl)ethyl (6-(((6-cyclopropylimidazo[1,2-a]pyridin-2-yl)methyl)amino)pyrimidin-4-yl)carbamate], for which the half-maximal effective concentration (EC50) lay in the range of 0.005 to 0.05 µM. The same measure for `O=C(Nc1cc(NCc2cn3cc(C4CC4)ccc3n2)ncn1)OCC(O)c1cccc(Cl)c1` (centres unmarked) [Compound I-9, 2-(3-chlorophenyl)-2-hydroxyethyl (6-(((6-cyclopropylimidazo[1,2-a]pyridin-2-yl)methyl)amino)pyrimidin-4-yl)carbamate]: 0.005 to 0.05 µM. Turning to `O=C(Nc1cn2c(Cc3cn4cc(C5CC5)ccc4n3)nnc2cn1)OCc1cccc(Cl)c1` [Compound I-14, 3-chlorobenzyl (3-((6-cyclopropylimidazo[1,2-a]pyridin-2-yl)methyl)-[1,2,4]triazolo[4,3-a]pyrazin-6-yl)carbamate], the 50% effective concentration (EC50) lay within 0.05 to 0.5 µM.

Turning to `O=C(Nc1cc2c(cn1)ncn2Cc1cn2cc(C3CC3)ccc2n1)OCc1cccc(Cl)c1` [Compound I-16, 3-chlorobenzyl (1-((6-cyclopropylimidazo[1,2-a]pyridin-2-yl)methyl)-1H-imidazo[4,5-c]pyridin-6-yl)carbamate], the EC50 lay within 0.05 to 0.5 µM.

As for `CC(OC(=O)Nc1cc2c(cn1)ncn2Cc1cn2cc(C3CC3)ccc2n1)c1cccc(Cl)c1` (centres unmarked) [Compound I-17, 1-(3-chlorophenyl)ethyl (1-((6-cyclopropylimidazo[1,2-a]pyridin-2-yl)methyl)-1H-imidazo[4,5-c]pyridin-6-yl)carbamate], the EC50 was in the range of 0.05 to 0.5 µM.

As for `O=C(Nc1nccc2nn(Cc3cn4cc(C5CC5)ccc4n3)cc12)OCc1cccc(Cl)c1` [Compound I-19], the half-maximal effective concentration (EC50) lay in the range of 0.005 to 0.05 µM. The same measure for `O=C(Nc1cc2c(cn1)nnn2Cc1cn2cc(C3CC3)ccc2n1)OCc1cccc(Cl)c1` [Compound I-20, 3-chlorobenzyl (1-((6-cyclopropylimidazo[1,2-a]pyridin-2-yl)methyl)-1H-[1,2,3]triazolo[4,5-c]pyridin-6-yl)carbamate]: 0.05 to 0.5 µM; for `O=C(Nc1nccc2nn(Cc3cn4cc(C5CC5)ccc4n3)cc12)OCc1cc(Cl)ccc1-n1cnnn1` [Compound I-22, 5-chloro-2-(1H-tetrazol-1-yl)benzyl (2-((6-cyclopropylimidazo[1,2-a]pyridin-2-yl)methyl)-2H-pyrazolo[4,3-c]pyridin-4-yl)carbamate]: under 0.005 µM. As to `O=C(Nc1cc2c(cn1)ncn2Cc1cn2cc(C3CC3)ccc2n1)OCc1cc(Cl)ccc1-n1cnnn1` [Compound I-23, 5-chloro-2-(1H-tetrazol-1-yl)benzyl (1-((6-cyclopropylimidazo[1,2-a]pyridin-2-yl)methyl)-1H-imidazo[4,5-c]pyridin-6-yl)carbamate], the EC50 is under 0.005 µM. The same measure for `O=C(NCc1cccc(Cl)c1)Nc1cc(NCc2cn3cc(C4CC4)ccc3n2)ncn1` [Compound I-24, 1-(3-chlorobenzyl)-3-(6-(((6-cyclopropylimidazo[1,2-a]pyridin-2-yl)methyl)amino)pyrimidin-4-yl)urea]: 0.5 to 9 µM; for `O=C(Nc1cc(NCc2cn3cc(C4CC4)ccc3n2)ncn1)N1CC(c2cccc(Cl)c2)C1` [Compound I-25, 3-(3-chlorophenyl)-N-(6-(((6-cyclopropylimidazo[1,2-a]pyridin-2-yl)methyl)amino)pyrimidin-4-yl)azetidine-1-carboxamide]: over 9 µM. With `O=C(NCc1cc(Cl)ccn1)Nc1cc(NCc2cn3cc(C4CC4)ccc3n2)ncn1` [Compound I-27, 1-((4-chloropyridin-2-yl)methyl)-3-(6-(((6-cyclopropylimidazo[1,2-a]pyridin-2-yl)methyl)amino)pyrimidin-4-yl)urea], the EC50 lay in the range of 0.05 to 0.5 µM.

`O=C(NCc1nccc(Cl)n1)Nc1cc(NCc2cn3cc(C4CC4)ccc3n2)ncn1` [Compound I-29, 1-((4-chloropyrimidin-2-yl)methyl)-3-(6-(((6-cyclopropylimidazo[1,2-a]pyridin-2-yl)methyl)amino)-pyrimidin-4-yl)urea]: the EC50 lay in the range of 0.05 to 0.5 µM.

Take `COc1ccnc(CNC(=O)Nc2cc(NCc3cn4cc(C5CC5)ccc4n3)ncn2)n1` [Compound I-30, 1-(6-(((6-cyclopropylimidazo[1,2-a]pyridin-2-yl)methyl)amino)pyrimidin-4-yl)-3-((4-methoxypyrimidin-2-yl)methyl)urea]: the EC50 fell in the range of 0.5 to 9 µM.

With `O=C(Nc1cc(N2C[C@@H](O)C[C@@H]2c2cn3cc(C4CC4)ccc3n2)ncn1)N1CC(c2ccccc2)C1` [Compound I-31, N-(6-((2R,4S)-2-(6-cyclopropylimidazo[1,2-a]pyridin-2-yl)-4-hydroxypyrrolidin-1-yl)pyrimidin-4-yl)-3-phenylazetidine-1-carboxamide], the concentration for a half-maximal effect (EC50) was in the range of 0.5 to 9 µM. With `O=C(Nc1cc(NCc2cn3cc(C4CC4)ccc3n2)ncn1)NC1Cc2ccc(Cl)cc21` (centres unmarked) [Compound I-32, 1-(4-chlorobicyclo[4.2.0]octa-1(6),2,4-trien-7-yl)-3-(6-(((6-cyclopropylimidazo[1,2-a]pyridin-2-yl)methyl)amino)pyrimidin-4-yl)urea], the 50% effective concentration (EC50) lay within 0.5 to 9 µM. Turning to `O=C(Nc1cc(N2C[C@@H](O)C[C@@H]2c2cn3cc(C4CC4)ccc3n2)ncn1)N1CC(c2ncccn2)C1` [Compound I-33, N-(6-((2R,4S)-2-(6-cyclopropylimidazo[1,2-a]pyridin-2-yl)-4-hydroxypyrrolidin-1-yl)pyrimidin-4-yl)-3-(pyrimidin-2-yl)azetidine-1-carboxamide], the EC50 is 0.05 to 0.5 µM. The value for `Cc1ccnc(COC(=O)Nc2cc(NCc3cn4cc(C5CC5)ccc4n3)ncn2)n1` [Compound I-34, (4-methylpyrimidin-2-yl)methyl (6-(((6-cyclopropylimidazo[1,2-a]pyridin-2-yl)methyl)amino)pyrimidin-4-yl)carbamate] was 0.005 to 0.05 µM.
